Data: patent US20140011853A1, “SUBSTITUTED 3-(BIPHENYL-3-YL)-8,8-DIFLUORO-4-HYDROXY-1-AZASPIRO[4.5]DEC-3-EN-2-ONES FOR THERAPY” (BAYER INTELLECTUAL PROPERTY GMBH, priority 2011, published 2014)
“And” between values parts separate entries of the source, which are not always exact repeats. Identical values can stand only once.

Legend:
[1] = system: KM12; assay: Tumour cell proliferation, CellTiter-Glo, 96-hour incubation, KM12; format: cell-based; conditions: Homo sapiens, KM12, 96 h; read-out: KM12 IC50
Method: (§1) In accordance with the invention, the substances were tested in cell-based assays for the ability of the substances of inhibiting tumour cell proliferation after a 96-hour incubation with the substance. Cell viability was tested using the CellTiter-Glo® luminescent cell viability assay (Promega). The cells were sown at a density of 2000-5000 cells/well (depending on the cell line) in 100 μl growth medium on 96-well microtiter plates. For each cell line examined, cells were sown on a separate plate to determine the luminescence at t=0 hours and t=96 hours. After overnight incubation at 37° C., the luminescence values for the t=0 samples were determined. The dose plates for the t=96 hours points in time were treated with substances diluted with growth medium. The cells were then incubated at 37° C. for 96 hours, and the luminescence values for the t=96 hours samples were then determined. For data analysis, the t=0 values were subtracted from the t=96 hours values for treated and untreated samples. The differences in luminescence in percent between substance-treated samples and control values were used to determine the growth inhibition in percent.
(§2) The substances were tested in the following cell lines which represent the stated indications in an exemplary manner: […]

[2] = system: MCF7; assay: Tumour cell proliferation, CellTiter-Glo, 96-hour incubation, MCF7; format: cell-based; conditions: Homo sapiens, MCF7, 96 h; read-out: MCF7 IC50
Method: as §1, §2

[3] = system: H460; assay: Tumour cell proliferation, CellTiter-Glo, 96-hour incubation, H460; format: cell-based; conditions: Homo sapiens, NCI-H460, 96 h; read-out: H460 IC50
Method: as §1, §2

[4] = biological target: human ACC2 (Homo sapiens, UniProt O00763); assay: Human ACC2 enzyme assay (ADP-Glo); conditions: ACC 2 IC50, individual measurements
[5] = system: PC3; assay: Tumour cell proliferation, CellTiter-Glo, 96-hour incubation, PC3; format: cell-based; conditions: Homo sapiens, PC-3, 96 h; read-out: PC3 IC50
Method: as §1, §2

[6] = Membrane affinity logMA (MA-Transil); format: physicochemical; conditions: buffer pH 7.4
[7] = biological target: T1, human ACC1 (Homo sapiens, UniProt Q13085); assay: Human ACC1 enzyme assay (ADP-Glo); format: biochemical; conditions: individual measurements; read-out: ACC 1 IC50
T1 construct: FLAG (C); made in house; host or cells: baculovirus-infected insect cells (Hi5)

[8] = system: human ACC1; assay: Human ACC1 enzyme assay (ADP-Glo); format: biochemical; conditions: for Ratio of IC50s ACC2/ACC1 (respective measurement): pairwise, same dilution series
[9] = biological target: human serum albumin (HSA) (Homo sapiens, UniProt P02768); assay: Protein binding to human serum albumin (HSA-Transil)
[10] = Octanol/water distribution coefficient (logP/D), isocratic HPLC method; format: physicochemical; conditions: pH 7.4
Description: Assay for Determining the Octanol/Water Distribution Coefficient (logP/D):
The distribution coefficient octanol/water P or D is a key parameter for estimating membrane penetration and permeability. It is defined as the ratio of the equilibrium concentrations of a substance in the two-phase system octanol/water.
It is usually stated in form of the decadic logarithm (logP or logD).
logP describes the distribution behaviour of a substance exclusively present in its neutral form. logD describes the distribution behaviour of a substance at a certain pH; depending on the ionization constant pKa of the substance, some of the substance may be present in ionic form, and some in neutral form.
The logP/D of the active compounds was determined using an isocratic HPLC method (HPLC=high performance liquid chromatography) (literature: OECD Guideline for Testing of Chemicals No. 117). The method is based on the correlation of the HPLC retention time of the test substance to that of reference substances with known distribution coefficients.
The test substance was employed as a 10 mM solution in DMSO (DMSO=dimethyl sulphoxide). 10 μl of this solution were made up to 100 μl with a methanol/water mixture in a ratio of 7+3.
The nine reference substances were dissolved individually in methanol. 100 μl each of the stock solutions were added to an HPLC vial and mixed with 300 μl of water.
A formamide solution was used to determine the hold-up time. To this end, 7 mg of formamide were dissolved in 10 ml of methanol. 100 μl of this stock solution were mixed with 500 μl of methanol and 200 μl of water.
All solutions were chromatographed using a flow rate of 1.00 ml/min.
Injection Protocol: formamide, references, test substance 1, test substance 2, . . . , formamide, references.
Evaluation of the retention times was carried out in a diode array detector (DAD) at 200-400 nm Via the molecular mass, the identity of the test substance was checked using the downstream mass spectrometer.
The HPLC run was evaluated using the Waters software Masslynx 4.1.
The logP/D values were calculated using the software “POW Determination” (proprietary development).

[11] = system: Phaedon cochleariae; assay: Phaedon test (PHAECO spray treatment); conditions: for effect (kill of beetle larvae): 500 g/ha, after 7 days
[12] = system: Myzus persicae; assay: Myzus test (MYZUPE spray treatment); format: in vivo; conditions: for effect (kill of aphids) / pest or weed control at 500 g/ha: 500 g/ha, after 6 days; for pest or weed control at 500 g/ha: read-out: effect (kill of aphids)
Description: Disks of Chinese cabbage (Brassica pekinensis) infested by all stages of the green peach aphid (Myzus persicae) are sprayed with an active compound formulation of the desired concentration.

[13] = system: Spodoptera frugiperda; assay: Spodoptera frugiperda test (SPODFR spray treatment); format: in vivo; conditions: 500 g/ha, after 7 days
[14] = system: Tetranychus urticae; assay: Tetranychus test, OP-resistant (TETRUR spray treatment); format: in vivo; conditions: for effect (kill of spider mites) / pest or weed control at 100 g/ha: after 6 days; for pest or weed control at 100 g/ha: read-out: effect (kill of spider mites)
[15] = Tetranychus urticae, 144 h, 100 g/ha

human ACC2, sequence (O00763 27-2458 limits assumed): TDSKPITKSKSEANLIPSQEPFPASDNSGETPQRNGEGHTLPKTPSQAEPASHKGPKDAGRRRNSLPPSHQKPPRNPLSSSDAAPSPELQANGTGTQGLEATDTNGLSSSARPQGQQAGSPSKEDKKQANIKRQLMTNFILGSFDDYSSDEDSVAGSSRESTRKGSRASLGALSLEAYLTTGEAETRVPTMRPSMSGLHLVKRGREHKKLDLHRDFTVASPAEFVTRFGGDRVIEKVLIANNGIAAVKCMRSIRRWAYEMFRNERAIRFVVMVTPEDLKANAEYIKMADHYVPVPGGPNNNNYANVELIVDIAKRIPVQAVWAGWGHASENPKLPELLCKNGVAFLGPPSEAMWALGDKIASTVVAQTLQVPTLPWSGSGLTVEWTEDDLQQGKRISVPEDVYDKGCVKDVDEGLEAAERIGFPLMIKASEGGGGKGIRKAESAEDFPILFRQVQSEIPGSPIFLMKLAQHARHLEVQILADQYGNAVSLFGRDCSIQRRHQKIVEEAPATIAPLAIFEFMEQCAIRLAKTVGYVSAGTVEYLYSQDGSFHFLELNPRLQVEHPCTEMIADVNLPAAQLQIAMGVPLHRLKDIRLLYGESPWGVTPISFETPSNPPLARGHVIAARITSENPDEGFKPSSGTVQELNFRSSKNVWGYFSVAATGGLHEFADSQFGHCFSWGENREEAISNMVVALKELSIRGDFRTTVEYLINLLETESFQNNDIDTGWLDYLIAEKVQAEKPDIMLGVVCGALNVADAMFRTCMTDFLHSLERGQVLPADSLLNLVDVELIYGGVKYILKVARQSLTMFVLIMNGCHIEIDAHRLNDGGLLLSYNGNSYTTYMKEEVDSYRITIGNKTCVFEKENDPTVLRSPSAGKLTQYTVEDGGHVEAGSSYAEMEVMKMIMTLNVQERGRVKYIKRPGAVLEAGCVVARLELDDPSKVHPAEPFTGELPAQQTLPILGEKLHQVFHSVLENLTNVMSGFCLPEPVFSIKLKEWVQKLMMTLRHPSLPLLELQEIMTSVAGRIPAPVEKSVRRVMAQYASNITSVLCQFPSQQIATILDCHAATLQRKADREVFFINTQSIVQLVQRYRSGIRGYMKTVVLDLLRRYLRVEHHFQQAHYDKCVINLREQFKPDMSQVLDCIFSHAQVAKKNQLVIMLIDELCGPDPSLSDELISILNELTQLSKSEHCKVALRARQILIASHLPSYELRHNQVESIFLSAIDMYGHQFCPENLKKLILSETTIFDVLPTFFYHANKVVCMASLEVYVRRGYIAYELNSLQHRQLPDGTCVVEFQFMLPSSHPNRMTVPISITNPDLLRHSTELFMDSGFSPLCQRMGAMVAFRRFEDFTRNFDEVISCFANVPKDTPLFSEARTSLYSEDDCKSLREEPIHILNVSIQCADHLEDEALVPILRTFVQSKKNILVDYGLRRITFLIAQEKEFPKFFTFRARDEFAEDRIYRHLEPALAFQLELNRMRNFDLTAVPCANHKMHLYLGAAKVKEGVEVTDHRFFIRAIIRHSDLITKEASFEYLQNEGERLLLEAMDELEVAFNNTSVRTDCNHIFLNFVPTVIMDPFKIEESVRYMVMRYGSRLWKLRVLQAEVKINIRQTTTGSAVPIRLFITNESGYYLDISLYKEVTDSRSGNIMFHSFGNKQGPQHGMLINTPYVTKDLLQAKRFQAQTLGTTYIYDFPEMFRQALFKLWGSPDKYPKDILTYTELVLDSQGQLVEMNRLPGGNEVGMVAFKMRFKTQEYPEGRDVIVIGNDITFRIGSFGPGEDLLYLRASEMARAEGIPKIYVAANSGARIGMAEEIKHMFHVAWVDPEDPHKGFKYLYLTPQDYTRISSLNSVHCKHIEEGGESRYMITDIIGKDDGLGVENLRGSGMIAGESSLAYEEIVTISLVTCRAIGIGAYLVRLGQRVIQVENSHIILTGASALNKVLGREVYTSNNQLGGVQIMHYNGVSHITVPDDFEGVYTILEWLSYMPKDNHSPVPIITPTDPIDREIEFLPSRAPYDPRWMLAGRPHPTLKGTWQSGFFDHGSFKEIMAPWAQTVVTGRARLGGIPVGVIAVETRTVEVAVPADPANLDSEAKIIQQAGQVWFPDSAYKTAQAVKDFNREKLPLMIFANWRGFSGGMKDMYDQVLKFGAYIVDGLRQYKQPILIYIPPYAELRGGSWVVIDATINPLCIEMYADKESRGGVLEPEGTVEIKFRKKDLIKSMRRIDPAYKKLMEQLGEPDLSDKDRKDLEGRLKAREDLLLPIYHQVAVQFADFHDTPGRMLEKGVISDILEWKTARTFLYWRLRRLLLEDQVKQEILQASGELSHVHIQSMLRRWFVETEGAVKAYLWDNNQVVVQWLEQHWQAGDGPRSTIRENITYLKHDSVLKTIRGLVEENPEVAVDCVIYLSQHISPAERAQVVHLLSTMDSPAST
human serum albumin (HSA), sequence (P02768 25-609): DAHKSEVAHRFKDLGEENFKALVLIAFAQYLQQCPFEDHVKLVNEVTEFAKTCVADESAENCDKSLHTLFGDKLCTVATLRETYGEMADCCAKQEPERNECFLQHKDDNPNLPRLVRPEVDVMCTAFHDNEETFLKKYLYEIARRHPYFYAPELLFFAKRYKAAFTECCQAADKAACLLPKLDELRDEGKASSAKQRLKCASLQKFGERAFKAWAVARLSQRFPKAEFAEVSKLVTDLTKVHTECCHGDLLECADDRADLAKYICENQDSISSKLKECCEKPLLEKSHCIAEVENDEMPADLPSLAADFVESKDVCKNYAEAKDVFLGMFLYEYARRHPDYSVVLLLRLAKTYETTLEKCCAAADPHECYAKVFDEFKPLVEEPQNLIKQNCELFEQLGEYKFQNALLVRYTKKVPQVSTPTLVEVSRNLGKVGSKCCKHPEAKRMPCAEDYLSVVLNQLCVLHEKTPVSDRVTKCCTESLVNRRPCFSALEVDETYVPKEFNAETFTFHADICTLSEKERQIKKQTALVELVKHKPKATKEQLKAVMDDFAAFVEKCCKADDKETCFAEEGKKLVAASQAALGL

SMILES | IC50 [1] | IC50 [2] | IC50 [3] | IC50 [4] | IC50 [5] | IC50 [7] | Selectivity ACC1 vs. ACC2 (mean of the individual measurements ± standard deviation) [8] | effect (kill of beetle larvae) [11] | effect (kill of aphids) [12] | pest or weed control at 500 g/ha ([12]; Myzus persicae, 144 h) | pest or weed control at 100 g/ha [14, 15] | other results
Cc1ccc(-c2ccc(Cl)c(F)c2)cc1C1=C(O)[C@]2(CC[C@H](C(F)(F)F)CC2)NC1=O [V.1-a, (5s,8s)-3-(4′-Chloro-3′-fluoro-4-methylbiphenyl-3-yl)-4-hydroxy-8-(trifluoromethyl)-1-azaspiro[4.5]dec-3-en-2-one, reference compound] | 245 nM | 30 nM | 573 nM | 580 nM and 610 nM | 398 nM | 67 nM and 59 nM | 9.4 ± 0.8 |  |  |  |  | logMA [6]: 2.55 (2.4-2.7, n = 2); Ratio of IC50s ACC2/ACC1 (respective measurement) [8]: 8.6 and 10.3; Kd [9]: 1430 nM; chromatographic logP [10]: 2.55
Cc1ccc(-c2ccc(F)cc2)c(C)c1C1=C(O)C2(CCC(F)(F)CC2)OC1=O [Example I-2-a-2] |  |  |  |  |  |  |  | 100% | 100% |  |  | effect (kill of caterpillars) [13]: 100%; effect (kill of spider mites) ([14]; 500 g/ha): 100%
Cc1cc(Br)cc(C)c1C1=C(O)C2(CCC(F)(F)CC2)NC1=O [Example I-1-a-5] |  |  |  |  |  |  |  | 100% | 100% |  |  | effect (kill of spider mites) ([14]; 100 g/ha): 100%
Cc1cc(C)c(C2=C(O)C3(CCC(F)(F)CC3)OC2=O)cc1C [Example I-2-a-1] |  |  |  |  |  |  |  |  |  | 100% |  | 
Cc1ccc(Br)cc1C1=C(O)C2(CCC(F)(F)CC2)NC1=O [Example I-1-a-14, 3-(5-Bromo-2-methylphenyl)-8,8-difluoro-4-hydroxy-1-azaspiro[4.5]dec-3-en-2-one] |  |  |  |  |  |  |  |  |  | 100% |  | 
O=C1NC2(CCC(F)(F)CC2)C(O)=C1c1cc(-c2ccc(Cl)cc2)ccc1Cl [Example 1-4, 3-(4,4′-Dichlorobiphenyl-3-yl)-8,8-difluoro-4-hydroxy-1-azaspiro[4.5]dec-3-en-2-one] | 319 nM | 86 nM | 481 nM | 5480 nM and 3110 nM | 231 nM | 121 nM and 91 nM | 39.7 ± 5.7 | 100% |  | 90% | 90% | effect (kill of caterpillars) [13]: 100%; Ratio of IC50s ACC2/ACC1 (respective measurement) [8]: 45.5 and 34.0
Cc1cc(C)c(C2=C(O)C3(CCC(F)(F)CC3)OC2=O)c(C)c1 [Example I-2-a-4] |  |  |  |  |  |  |  | 100% | 100% |  |  | 
Cc1ccc(-c2ccc(F)c(F)c2)cc1C1=C(O)C2(CCC(F)(F)CC2)NC1=O [Example 1-6, 3-(3′,4′-Difluoro-4-methylbiphenyl-3-yl)-8,8-difluoro-4-hydroxy-1-azaspiro[4.5]dec-3-en-2-one] | 257 nM | 45 nM | 371 nM | 3870 nM and 8030 nM | 158 nM | 133 nM and 107 nM | 51.9 ± 22.8 | 100% |  | 100% | 90% | melting point: 223 °C; inhibition at 20 g/ha ([11]; Phaedon cochleariae, 168 h, read-out: % activity PHAECO): 67%; inhibition at 20 g/ha ([12]; Myzus persicae, 144 h, 20 g/ha, 6 d, read-out: % activity MYZUPE): 100%; inhibition at 20 g/ha ([14]; Tetranychus urticae, 144 h, 20 g/ha, 6 d, read-out: % activity TETRUR): 90%
Cc1cc(-c2ccc(Cl)cc2)cc(C)c1C1=C(O)C2(CCC(F)(F)CC2)NC1=O [Example I-1-a-9] |  |  |  |  |  |  |  | 100% |  | 100% | 100% | 
Cc1cc(OCC(F)(F)F)cc(C)c1C1=C(O)C2(CCC(F)(F)CC2)NC1=O [Example I-1-a-8] |  |  |  |  |  |  |  | 100% |  | 100% | 100% | 
